Measured values reported in patent US5155107A, “17β-substituted-4-aza-5α-androstan-3-one derivatives and process for their preparation” (Farmitalia Carlo Erba, priority 1990, dated 1992).
Where two headings read alike, the source gives them in different places.

Experiments:
[1] = molecular target: T1, 5α-reductase (particulate fraction of human benign prostatic hypertrophy tissue) (Homo sapiens, UniProt P31213); test: Inhibition of prostatic 5α-reductase in vitro; assay type: biochemical
T1 construct: homogenates of human benign prostatic hypertrophy tissue as the enzyme source; from tissue; host or cells: human benign prostatic hypertrophy tissue, 40,000×g particulate fraction (nuclei, microsomes, mitochondria)
T1 sequence (P31213 1-254): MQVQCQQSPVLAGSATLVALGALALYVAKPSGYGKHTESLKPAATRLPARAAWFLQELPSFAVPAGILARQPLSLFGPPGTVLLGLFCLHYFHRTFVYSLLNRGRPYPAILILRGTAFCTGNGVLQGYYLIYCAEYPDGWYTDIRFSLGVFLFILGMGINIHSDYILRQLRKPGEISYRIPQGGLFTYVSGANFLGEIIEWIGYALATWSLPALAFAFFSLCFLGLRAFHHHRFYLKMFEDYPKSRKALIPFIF
Description: For example, the inhibitory effect of the compounds of the invention on 5α-reductase was determined in vitro in comparison with progesterone taken as the reference compound, according to the procedure reported herebelow.
Inhibition of 5α-reductase was evaluated using the particulate fraction (containing nuclei, microsomes and mitochondria) from homogenates of human benign prostatic hypertrophy tissue as the enzyme source. The particulate fraction was prepared centrifuging prostate homogenate at 40,000×g. The resulting pellet, washed several times, was resuspended in buffer and stored at -80° C. in aliquots containing ≈10 mg protein/ml.
The assay for 5α-reductase was done in a final volume of 0.5 ml, containing 1 mM dithiothreitol, 40 mM TRIS-HCl buffer pH 5.0, 5 mM NADPH, 1 μM [4-^14 C]testosterone, 0.3 mg of prostate particulate fraction and various concentrations of the inhibitors. After 30 min incubation at 37° C. the reaction was terminated by addition of 1.5 ml diethyl ether and the organic phase was separated, evaporated under N2 and resuspended in ethyl acetate. Testosterone metabolites in this extract were separated in TLC on silica gel F 254 plates (Merck) using chloroform, acetone and n-hexane (2:1:2) as developing solvent system. Radioactivity on the plate was scanned and analyzed from quantitative plots printed by a TLC-analyzer (Berthold). The fractional 5α-reduction of testosterone was calculated by relating the ^14 C-radioactivity in the 5α-reduced metabolites (5α-dihydrotestosterone, 3α- and 3β-androstanediols) regions to the total radioactivity in the testosterone and 5α-reduced metabolites regions.
The concentration of each compound required to reduce control 5α-reductase by 50% (IC50) was determined by plotting % inhibition versus log of inhibitor concentration.
As an example, the potency of three representative compounds of the invention, namely 4-methyl-17β-[N-isopropyl-N-(N-isopropylcarbamoyl)carbamoyl]-4-aza-5α-androstan-3-one (Compound 1), 4-methyl-17β-[N-cyclohexyl-N-(N-cyclohexylcarbamoyl) carbamoyl-4-aza-5α-androstan-3-one (Compound 11) and 4-methyl-17β-[N-isopropyl-N-(N-isopropylthiocarbamoyl)carbamoyl-4-aza-5α-androstan-3-one (Compound 39) are reported in Table 1 in comparison with progesterone.

[2] = test system: 5α-reductase of rat prostate; test: Inhibition of prostate growth stimulated by testosterone propionate in castrated rats; assay type: in vivo; settings: for Inhibition of prostate growth stimulated by testosterone propionate: 7 days, testosterone propionate 0.3 mg/kg/day s.c.
Description: The compounds of the invention were also tested for their in vivo potency in inhibiting 5α-reductase of rat prostate, according to the following procedure.
Prepuberal 21-day old male rat were castrated via scrotal incision in light ether anaesthesia.
Starting on the seventh day after orchiectomy, the rats were treated with testosterone propionate (0.3 mg/kg/day subcutaneously) for 7 consecutive days to stimulate prostate growth. The 5α-reductase inhibitors were given orally at various doses once daily for 7 days, together with the standard dose of testosterone propionate.
Thus, for example, in the above test the compound 1 of the present invention was compared with the well known 5α-reductase inhibitor 4-methyl-17β-N,N-diethyl-carbamoyl-4-methyl-4-aza-5α-androstan- 3-one, identified as 4-MA and described, e.g., in U.S. Pat. No. 4,377,584) giving the results reported in the following Table 2.

[3] = molecular target: T2, cytoplasmic androgen (rat prostate) receptors (Rattus norvegicus, UniProt P15207); test: Rat prostate androgen receptor binding (inhibition of 3H-DHT binding); parameters: species or system Sprague-Dawley rats
T2 construct: Prostatic tissue, obtained from adrenalectomized and castrated Sprague-Dawley rats; from tissue; host or cells: prostate cytosol of adrenalectomized and castrated Sprague-Dawley rats
T2 sequence (P15207 1-902): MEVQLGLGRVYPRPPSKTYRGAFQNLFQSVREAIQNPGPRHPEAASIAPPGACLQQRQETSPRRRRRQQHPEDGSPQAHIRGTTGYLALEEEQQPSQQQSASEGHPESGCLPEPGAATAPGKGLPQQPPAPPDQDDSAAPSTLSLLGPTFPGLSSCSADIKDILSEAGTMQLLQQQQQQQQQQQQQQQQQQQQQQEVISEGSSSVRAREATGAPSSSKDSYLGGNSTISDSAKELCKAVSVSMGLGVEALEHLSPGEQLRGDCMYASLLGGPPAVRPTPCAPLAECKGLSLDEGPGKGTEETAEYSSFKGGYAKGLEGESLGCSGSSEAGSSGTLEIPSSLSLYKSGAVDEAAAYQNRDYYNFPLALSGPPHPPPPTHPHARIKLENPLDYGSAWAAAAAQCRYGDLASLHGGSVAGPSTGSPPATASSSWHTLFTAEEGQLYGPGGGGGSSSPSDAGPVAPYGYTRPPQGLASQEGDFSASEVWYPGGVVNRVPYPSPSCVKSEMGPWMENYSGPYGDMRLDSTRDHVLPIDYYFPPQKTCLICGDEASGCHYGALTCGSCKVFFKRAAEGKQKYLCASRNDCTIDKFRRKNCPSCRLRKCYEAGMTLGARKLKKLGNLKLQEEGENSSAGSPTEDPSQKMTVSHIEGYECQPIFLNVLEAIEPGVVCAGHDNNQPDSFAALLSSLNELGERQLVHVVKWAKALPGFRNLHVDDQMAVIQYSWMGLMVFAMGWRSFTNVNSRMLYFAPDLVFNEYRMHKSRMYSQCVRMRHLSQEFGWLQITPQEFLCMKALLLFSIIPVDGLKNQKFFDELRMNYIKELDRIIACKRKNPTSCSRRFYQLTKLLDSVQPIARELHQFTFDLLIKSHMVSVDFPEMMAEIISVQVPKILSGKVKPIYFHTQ
Description: For their use in androgen- dependent conditions, the 5α-reductase inhibitors, should have a very low intrinsic androgenic activity, which can be shown by the binding affinity to the androgen receptor.
A low binding affinity to the androgen receptor is therefore desirable in a 5α-reductase inhibitor for use in the treatment of androgen dependent conditions.
Binding affinity to cytoplasmic androgen (rat prostate) receptors was determined by standard dextran-coated absorption technique (Raynaud J. P. et al., J. Steroid. Biochem. 6: 615-622, 1975).
Prostatic tissue, obtained from adrenalectomized and castrated Sprague-Dawley rats, was homogenized in 10 mM Tris HCl pH 7.4, containing 1.5 mM EDTA and 1 mM dithiothreitol in motor driven tissue grinders. The homogenate was centrifuged at 10,000×g for 1 h at 4° C.
Aliquots of cytosol 00.2 ml) were incubated for 2 hours at 0° C. with various concentrations of the test compounds, in duplicate, and a fixed amount of ^3 H-dihydrotesterone (DHT) final concentration 1 nM in 0.4 ml of incubation volume).
Then, free radioactivity was absorbed on 0.2 ml of dextran-coated charcoal suspension and after centrifugation at 1,500×g for 10 min., the bound radioactivity in the supernatant was determined by liquid scintillation in Rialuma.
The concentration of each compound required to reduce specific ^3 H-DHT binding by 50% (IC50) was determined from a plot of bound radioactivity versus log of competitor concentration.
In the above test the Compound 1 of the present invention was compared with the same above identified reference compound 4-MA and the obtained results are reported in the following Table 3.

[4] = human BPH particulate fraction, 1 μM [4-14C]testosterone, pH 5.0, 30 min, 37° C., read-out: Inhibition of prostatic 5α-reductase IC50

CC(C)NC(=O)N(C(=O)[C@H]1CC[C@H]2[C@@H]3CC[C@H]4N(C)C(=O)CC[C@]4(C)[C@H]3CC[C@]12C)C(C)C [Compound 1, 4-methyl-17β-[N-isopropyl-N-(N-isopropylcarbamoyl)carbamoyl]-4-aza-5α-androstan-3-one]
IC50 [1, 4]: 0.055 µM
Inhibition of prostate growth stimulated by testosterone propionate ([2]; 3 mg/kg/day p.o.): 33%
Inhibition of prostate growth stimulated by testosterone propionate ([2]; 10 mg/kg/day p.o.): 55%
IC50 [3]: 150 µM
selectivity versus androgen receptor binding ([3]; Compound 1 versus reference compound 4-MA): more selective than the reference compound 4-MA
displacement of DHT from the prostatic androgen receptor ([3]; Table 3): displaces DHT from the prostatic androgen receptor only at a very high concentration

CCN(CC)C(=O)[C@H]1CC[C@H]2[C@@H]3CC[C@H]4N(C)C(=O)CC[C@]4(C)[C@H]3CC[C@]12C [Compound 4-MA, 4-methyl-17β-N,N-diethyl-carbamoyl-4-methyl-4-aza-5α-androstan-3-one]
Inhibition of prostate growth stimulated by testosterone propionate ([2]; 3 mg/kg/day p.o.): 1%
Inhibition of prostate growth stimulated by testosterone propionate ([2]; 10 mg/kg/day p.o.): 0%
Inhibition of prostate growth stimulated by testosterone propionate ([2]; 30 mg/kg/day p.o.): 49%
in vivo effect on the hypertrophic response to testosterone propionate ([2]; same dose, 10 mg/kg/day oral): completely ineffective
displaces DHT at a concentration lower than Compound 1 (fold) ([3]; 4-MA versus Compound 1): 60 times lower
IC50 ([3]; rat prostate cytosol, 1 nM 3H-DHT, 2 hours, 0° C., read-out: Inhibition of DHT binding IC50): 2.5 µM

CN1C(=O)CC[C@]2(C)[C@H]3CC[C@]4(C)[C@@H](C(=O)N(C(=O)NC5CCCCC5)C5CCCCC5)CC[C@H]4[C@@H]3CC[C@@H]12 [Compound 11, 4-methyl-17β-[N-cyclohexyl-N-(N-cyclohexylcarbamoyl)carbamoyl]-4-aza-5α-androstan-3-one]
IC50 [1, 4]: 0.041 µM

CC(C)NC(=S)N(C(=O)[C@H]1CC[C@H]2[C@@H]3CC[C@H]4N(C)C(=O)CC[C@]4(C)[C@H]3CC[C@]12C)C(C)C [Compound 39, 4-methyl-17β-[N-isopropyl-N-(N-isopropylthiocarbamoyl)carbamoyl]-4-aza-5α-androstan-3-one]
IC50 [1, 4]: 0.011 µM

CC(=O)[C@H]1CC[C@H]2[C@@H]3CCC4=CC(=O)CC[C@]4(C)[C@H]3CC[C@]12C [Progesterone, progesterone, reference compound]
IC50 [1]: 1.98 µM
